# In the supplement of paper PMC10307832:
# Key:
# Assay in all cases: relative viability (nuclei count vs DMSO), 5 days (fraction); higher = more cells survive
# 201T = system: 201T
# Method in brief: (§1)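 Dosing by pin tool came one day after lung cancer cell lines were seeded in 1536-well plates, using either one drug or a fixed anchor-drug dose plus five library-drug doses (not always all listed) in √10 steps. After 5 days, nuclei were counted on 4× images. Relative viability is treated-well nuclei count divided by vehicle-well nuclei count, and values are medians of duplicate plates.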
# COR-L 105 = system: COR-L 105
# Method in brief: as §1
# EPLC-272H = system: EPLC-272H
# Method in brief: as §1
# H3255 = system: H3255
# Method in brief: as §1
# HCC-78 = system: HCC-78
# Method in brief: as §1
# HCC-827 = system: HCC-827
# Method in brief: as §1
# LC-2-ad = system: LC-2-ad
# Method in brief: as §1
# LCLC-97TM1 = system: LCLC-97TM1
# Method in brief: as §1
# NCI-H1666 = system: NCI-H1666
# Method in brief: as §1
# NCI-H1915 = system: NCI-H1915
# Method in brief: as §1
# NCI-H2087 = system: NCI-H2087
# Method in brief: as §1
# NCI-H2126 = system: NCI-H2126
# Method in brief: as §1
# NCI-H2347 = system: NCI-H2347
# Method in brief: as §1
# NCI-H23 = system: NCI-H23
# Method in brief: as §1
# NCI-H2405 = system: NCI-H2405
# Method in brief: as §1
# NCI-H520 = system: NCI-H520
# Method in brief: as §1
# NCI-H647 = system: NCI-H647
# Method in brief: as §1
# NCI-H650 = system: NCI-H650
# Method in brief: as §1
# NCI-H661 = system: NCI-H661
# Method in brief: as §1
# PC-14 = system: PC-14
# Method in brief: as §1
# RERF-LC-KJ = system: RERF-LC-KJ
# Method in brief: as §1
smiles,measurement,setting,value
CC(=O)O[C@@]12CO[C@@H]1C[C@H](O)[C@@]1(C)C(=O)[C@H](O)C3=C(C)[C@@H](OC(=O)[C@H](O)[C@@H](NC(=O)OC(C)(C)C)c4ccccc4)C[C@@](O)([C@@H](OC(=O)c4ccccc4)[C@H]21)C3(C)C [Docetaxel] + C[C@]1(O)C[C@@H](c2nc(-c3ccc4ccc(-c5ccccc5)nc4c3)c3c(N)nccn32)C1 [Linsitinib] (partner 1 µM),relative viability,201T; first compound 0.0002 µM,1.04
same,relative viability,201T; first compound 0.000632 µM,1.07
same,relative viability,201T; first compound 0.002 µM,0.944
same,relative viability,201T; first compound 0.006325 µM,0.48
same,relative viability,201T; first compound 0.02 µM,0.284
same,relative viability,COR-L 105; first compound 0.0002 µM,0.899
same,relative viability,COR-L 105; first compound 0.000632 µM,0.757
same,relative viability,COR-L 105; first compound 0.002 µM,0.395
same,relative viability,COR-L 105; first compound 0.006325 µM,0.362
same,relative viability,COR-L 105; first compound 0.02 µM,0.288
same,relative viability,EPLC-272H; first compound 0.0002 µM,1.08
same,relative viability,EPLC-272H; first compound 0.000632 µM,0.954
same,relative viability,EPLC-272H; first compound 0.002 µM,0.54
same,relative viability,EPLC-272H; first compound 0.006325 µM,0.126
same,relative viability,EPLC-272H; first compound 0.02 µM,0.0815
same,relative viability,H3255; first compound 0.0002 µM,0.824
same,relative viability,H3255; first compound 0.000632 µM,0.866
same,relative viability,H3255; first compound 0.002 µM,0.516
same,relative viability,H3255; first compound 0.006325 µM,0.223
same,relative viability,H3255; first compound 0.02 µM,0.209
same,relative viability,HCC-78; first compound 0.0002 µM,0.469
same,relative viability,HCC-78; first compound 0.000632 µM,0.429
same,relative viability,HCC-78; first compound 0.002 µM,0.339
same,relative viability,HCC-78; first compound 0.006325 µM,0.284
same,relative viability,HCC-78; first compound 0.02 µM,0.222
same,relative viability,HCC-827; first compound 0.0002 µM,0.971
same,relative viability,HCC-827; first compound 0.000632 µM,0.927
same,relative viability,HCC-827; first compound 0.002 µM,0.892
same,relative viability,HCC-827; first compound 0.006325 µM,0.438
same,relative viability,HCC-827; first compound 0.02 µM,0.347
same,relative viability,LC-2-ad; first compound 0.0002 µM,0.714
same,relative viability,LC-2-ad; first compound 0.000632 µM,0.223
same,relative viability,LC-2-ad; first compound 0.002 µM,0.185
same,relative viability,LC-2-ad; first compound 0.006325 µM,0.159
same,relative viability,LC-2-ad; first compound 0.02 µM,0.112
same,relative viability,LCLC-97TM1; first compound 0.000632 µM,0.153
same,relative viability,LCLC-97TM1; first compound 0.002 µM,0.155
same,relative viability,LCLC-97TM1; first compound 0.006325 µM,0.144
same,relative viability,LCLC-97TM1; first compound 0.02 µM,0.112
same,relative viability,NCI-H1666; first compound 0.0002 µM,0.712
same,relative viability,NCI-H1666; first compound 0.000632 µM,0.404
same,relative viability,NCI-H1666; first compound 0.002 µM,0.383
same,relative viability,NCI-H1666; first compound 0.006325 µM,0.28
same,relative viability,NCI-H1666; first compound 0.02 µM,0.211
same,relative viability,NCI-H1915; first compound 0.0002 µM,1.07
same,relative viability,NCI-H1915; first compound 0.000632 µM,1.06
same,relative viability,NCI-H1915; first compound 0.002 µM,0.724
same,relative viability,NCI-H1915; first compound 0.006325 µM,0.239
same,relative viability,NCI-H1915; first compound 0.02 µM,0.156
same,relative viability,NCI-H2087; first compound 0.0002 µM,0.848
same,relative viability,NCI-H2087; first compound 0.000632 µM,0.68
same,relative viability,NCI-H2087; first compound 0.002 µM,0.301
same,relative viability,NCI-H2087; first compound 0.006325 µM,0.326
same,relative viability,NCI-H2087; first compound 0.02 µM,0.156
same,relative viability,NCI-H2126; first compound 0.0002 µM,0.747
same,relative viability,NCI-H2126; first compound 0.000632 µM,0.683
same,relative viability,NCI-H2126; first compound 0.002 µM,0.631
same,relative viability,NCI-H2126; first compound 0.006325 µM,0.402
same,relative viability,NCI-H2126; first compound 0.02 µM,0.291
same,relative viability,NCI-H2347; first compound 0.0002 µM,0.946
same,relative viability,NCI-H2347; first compound 0.000632 µM,0.926
same,relative viability,NCI-H2347; first compound 0.002 µM,0.839
same,relative viability,NCI-H2347; first compound 0.006325 µM,0.622
same,relative viability,NCI-H2347; first compound 0.02 µM,0.517
same,relative viability,NCI-H23; first compound 0.0002 µM,0.579
same,relative viability,NCI-H23; first compound 0.000632 µM,0.572
same,relative viability,NCI-H23; first compound 0.002 µM,0.465
same,relative viability,NCI-H23; first compound 0.006325 µM,0.22
same,relative viability,NCI-H23; first compound 0.02 µM,0.126
same,relative viability,NCI-H2405; first compound 0.0002 µM,0.95
same,relative viability,NCI-H2405; first compound 0.000632 µM,0.913
same,relative viability,NCI-H2405; first compound 0.002 µM,0.667
same,relative viability,NCI-H2405; first compound 0.006325 µM,0.438
same,relative viability,NCI-H2405; first compound 0.02 µM,0.316
same,relative viability,NCI-H520; first compound 0.0002 µM,1.06
same,relative viability,NCI-H520; first compound 0.000632 µM,0.887
same,relative viability,NCI-H520; first compound 0.002 µM,0.277
same,relative viability,NCI-H520; first compound 0.006325 µM,0.182
same,relative viability,NCI-H520; first compound 0.02 µM,0.133
same,relative viability,NCI-H647; first compound 0.0002 µM,0.966
same,relative viability,NCI-H647; first compound 0.000632 µM,0.623
same,relative viability,NCI-H647; first compound 0.002 µM,0.123
same,relative viability,NCI-H647; first compound 0.006325 µM,0.102
same,relative viability,NCI-H647; first compound 0.02 µM,0.082
same,relative viability,NCI-H650; first compound 0.0002 µM,0.657
same,relative viability,NCI-H650; first compound 0.000632 µM,0.341
same,relative viability,NCI-H650; first compound 0.002 µM,0.312
same,relative viability,NCI-H650; first compound 0.006325 µM,0.255
same,relative viability,NCI-H650; first compound 0.02 µM,0.152
same,relative viability,NCI-H661; first compound 0.0002 µM,0.593
same,relative viability,NCI-H661; first compound 0.000632 µM,0.683
same,relative viability,NCI-H661; first compound 0.002 µM,0.45
same,relative viability,NCI-H661; first compound 0.006325 µM,0.449
same,relative viability,NCI-H661; first compound 0.02 µM,0.261
same,relative viability,PC-14; first compound 0.0002 µM,0.992
same,relative viability,PC-14; first compound 0.000632 µM,0.957
same,relative viability,PC-14; first compound 0.002 µM,0.606
same,relative viability,PC-14; first compound 0.006325 µM,0.152
same,relative viability,PC-14; first compound 0.02 µM,0.064
same,relative viability,RERF-LC-KJ; first compound 0.0002 µM,0.864
same,relative viability,RERF-LC-KJ; first compound 0.000632 µM,0.826
same,relative viability,RERF-LC-KJ; first compound 0.002 µM,0.504
same,relative viability,RERF-LC-KJ; first compound 0.006325 µM,0.207
same,relative viability,RERF-LC-KJ; first compound 0.02 µM,0.145
